{"source": "patent US8372391B2", "about": "“Biofungicidal composition for controlling phytopathogenic fungi” (priority 2009, dated 2013)", "tested_on": "Serratia plymuthica CCGG2742", "experiment": "Susceptibility of Serratia plymuthica CCGG2742 to various antibiotics", "assay_type": "cell-based", "set-up": "key: sensibility (S); resistance (R)"}
{"compound": "CCN1CCN(C(=O)N[C@@H](C(=O)N[C@@H]2C(=O)N3C(C(=O)O)=C(CSc4nnnn4C)CS[C@H]23)c2ccc(O)cc2)C(=O)C1=O", "note": "[Cefoperazone]", "values": [{"measurement": "Susceptibility of Serratia plymuthica CCGG2742 to antibiotic", "setting": "antibiotic 75 μg", "result": "S"}]}
{"compound": "C[C@H]1[C@H](NC(=O)/C(=N\\OC(C)(C)C(=O)O)c2csc(N)n2)C(=O)N1S(=O)(=O)O", "note": "[Aztreonam]", "values": [{"measurement": "Susceptibility of Serratia plymuthica CCGG2742 to antibiotic", "setting": "antibiotic 30 μg", "result": "S"}]}
{"compound": "CO/N=C(\\C(=O)N[C@@H]1C(=O)N2C(C(=O)O)=C(COC(N)=O)CS[C@H]12)c1ccco1", "note": "[Cefuroxime]", "values": [{"measurement": "Susceptibility of Serratia plymuthica CCGG2742 to antibiotic", "setting": "antibiotic 30 μg", "result": "R"}]}
{"compound": "CC1(C)S[C@@H]2[C@H](NC(=O)[C@H](N)c3ccc(O)cc3)C(=O)N2[C@H]1C(=O)O", "note": "[Amoxicillin]", "values": [{"measurement": "Susceptibility of Serratia plymuthica CCGG2742 to antibiotic", "setting": "antibiotic 25 μg", "result": "R"}]}
{"compound": "CC[C@H]1OC(=O)[C@H](C)[C@@H](O[C@H]2C[C@@](C)(OC)[C@@H](O)[C@H](C)O2)[C@H](C)[C@@H](O[C@@H]2O[C@H](C)C[C@H](N(C)C)[C@H]2O)[C@](C)(O)C[C@@H](C)C(=O)[C@H](C)[C@@H](O)[C@]1(C)O", "note": "[Erythromycin]", "values": [{"measurement": "Susceptibility of Serratia plymuthica CCGG2742 to antibiotic", "setting": "antibiotic 15 μg", "result": "R"}]}
{"compound": "Penicillin", "values": [{"measurement": "Susceptibility of Serratia plymuthica CCGG2742 to antibiotic", "setting": "antibiotic 10 U", "result": "R"}]}
{"compound": "CC(=O)OCC1=C(C(=O)O)N2C(=O)[C@@H](NC(=O)Cc3cccs3)[C@H]2SC1", "note": "[Cefalotin]", "values": [{"measurement": "Susceptibility of Serratia plymuthica CCGG2742 to antibiotic", "setting": "antibiotic 30 μg", "result": "R"}]}
{"compound": "Gentamicin", "values": [{"measurement": "Susceptibility of Serratia plymuthica CCGG2742 to antibiotic", "setting": "antibiotic 10 μg", "result": "S"}]}
{"compound": "CC(C)(O/N=C(\\C(=O)N[C@@H]1C(=O)N2C(C(=O)[O-])=C(C[n+]3ccccc3)CS[C@H]12)c1csc(N)n1)C(=O)O", "note": "[Ceftazidime]", "values": [{"measurement": "Susceptibility of Serratia plymuthica CCGG2742 to antibiotic", "setting": "antibiotic 30 μg", "result": "S"}]}
{"compound": "CCC[C@@H]1C[C@@H](C(=O)N[C@@H]([C@H]2O[C@H](SC)[C@H](O)[C@@H](O)[C@H]2O)[C@H](C)Cl)N(C)C1", "note": "[Clindamycin]", "values": [{"measurement": "Susceptibility of Serratia plymuthica CCGG2742 to antibiotic", "setting": "antibiotic 2 μg", "result": "R"}]}
{"compound": "CC1=C(C(=O)O)N2C(=O)[C@@H](NC(=O)[C@H](N)c3ccc(O)cc3)[C@H]2SC1", "note": "[Cefadroxil]", "values": [{"measurement": "Susceptibility of Serratia plymuthica CCGG2742 to antibiotic", "setting": "antibiotic 30 μg", "result": "R"}]}
{"compound": "CO/N=C(\\C(=O)N[C@@H]1C(=O)N2C(C(=O)O)=C(COC(C)=O)CS[C@H]12)c1csc(N)n1", "note": "[Cefotaxime]", "values": [{"measurement": "Susceptibility of Serratia plymuthica CCGG2742 to antibiotic", "setting": "antibiotic 30 μg", "result": "S"}]}
{"compound": "CN[C@H](CC(C)C)C(=O)N[C@H]1C(=O)N[C@@H](CC(N)=O)C(=O)N[C@H]2C(=O)N[C@H]3C(=O)N[C@H](C(=O)N[C@H](C(=O)O)c4cc(O)cc(O)c4-c4cc3ccc4O)[C@H](O)c3ccc(c(Cl)c3)Oc3cc2cc(c3O[C@@H]2O[C@H](CO)[C@@H](O)[C@H](O)[C@H]2O[C@H]2C[C@](C)(N)[C@H](O)[C@H](C)O2)Oc2ccc(cc2Cl)[C@H]1O", "note": "[Vancomycin]", "values": [{"measurement": "Susceptibility of Serratia plymuthica CCGG2742 to antibiotic", "setting": "antibiotic 30 μg", "result": "R"}]}
{"compound": "NCC[C@H](O)C(=O)N[C@@H]1C[C@H](N)[C@@H](O[C@H]2O[C@H](CN)[C@@H](O)[C@H](O)[C@H]2O)[C@H](O)[C@H]1O[C@H]1O[C@H](CO)[C@@H](O)[C@H](N)[C@H]1O", "note": "[Amikacine]", "values": [{"measurement": "Susceptibility of Serratia plymuthica CCGG2742 to antibiotic", "setting": "antibiotic 30 μg", "result": "S"}]}
{"compound": "Cc1onc(-c2ccccc2)c1C(=O)N[C@@H]1C(=O)N2[C@@H]1SC(C)(C)[C@@H]2C(=O)O", "note": "[Oxacillin]", "values": [{"measurement": "Susceptibility of Serratia plymuthica CCGG2742 to antibiotic", "setting": "antibiotic 1 μg", "result": "R"}]}
{"compound": "CC1(C)S[C@@H]2[C@H](NC(=O)C(C(=O)O)c3ccccc3)C(=O)N2[C@H]1C(=O)O", "note": "(some centres unmarked) [Carbenicillin]", "values": [{"measurement": "Susceptibility of Serratia plymuthica CCGG2742 to antibiotic", "setting": "antibiotic 100 μg", "result": "S"}]}
{"compound": "CO[C@@H]1[C@@H](OC(N)=O)[C@@H](O)[C@H](Oc2ccc3c(O)c(NC(=O)c4ccc(O)c(CC=C(C)C)c4)c(=O)oc3c2C)OC1(C)C", "note": "[Novobiocin]", "values": [{"measurement": "Susceptibility of Serratia plymuthica CCGG2742 to antibiotic", "setting": "antibiotic 5 μg", "result": "R"}]}
{"compound": "CC1(C)S[C@@H]2[C@H](NC(=O)[C@H](N)c3ccccc3)C(=O)N2[C@H]1C(=O)O", "note": "[Ampicillin]", "values": [{"measurement": "Susceptibility of Serratia plymuthica CCGG2742 to antibiotic", "setting": "antibiotic 10 μg", "result": "R"}]}
{"compound": "CO/N=C(\\C(=O)N[C@@H]1C(=O)N2C(C(=O)O)=C(CSc3nc(=O)c(=O)[nH]n3C)CS[C@H]12)c1csc(N)n1", "note": "[Ceftriaxone]", "values": [{"measurement": "Susceptibility of Serratia plymuthica CCGG2742 to antibiotic", "setting": "antibiotic 30 μg", "result": "S"}]}
{"compound": "CN(C)[C@@H]1C(O)=C(C(N)=O)C(=O)[C@@]2(O)C(O)=C3C(=O)c4c(O)cccc4[C@@](C)(O)[C@H]3C[C@@H]12", "note": "[Tetracycline]", "values": [{"measurement": "Susceptibility of Serratia plymuthica CCGG2742 to antibiotic", "setting": "antibiotic 30 μg", "result": "R"}]}
{"compound": "O=C(N[C@H](CO)[C@H](O)c1ccc([N+](=O)[O-])cc1)C(Cl)Cl", "note": "[Chloramphenicol]", "values": [{"measurement": "Susceptibility of Serratia plymuthica CCGG2742 to antibiotic", "setting": "antibiotic 30 μg", "result": "S"}]}
{"compound": "Cc1nnc(SCC2=C(C(=O)O)N3C(=O)[C@@H](NC(=O)Cn4cnnn4)[C@H]3SC2)s1", "note": "[Cefazolin]", "values": [{"measurement": "Susceptibility of Serratia plymuthica CCGG2742 to antibiotic", "setting": "antibiotic 30 μg", "result": "R"}]}
{"compound": "O=C1CN(/N=C/c2ccc([N+](=O)[O-])o2)C(=O)N1", "note": "[Nitrofurantoin]", "values": [{"measurement": "Susceptibility of Serratia plymuthica CCGG2742 to antibiotic", "setting": "antibiotic 300 μg", "result": "R"}]}
